These results are taken from patent publication US5656651A, “Androgenic directed compositions” (Biophysica Inc., priority 1995, dated 1997).

Values joined by “and” are separate entries in the source; they are usually repeats but may differ in a detail not shown here. Equal values may be shown once. Read-outs that look alike come from different tables or passages of the source. A value given as a limit tells only on which side of the number the result lay.

In series [1] the target is T1, human androgen receptors (Homo sapiens, UniProt P10275).
T1 construct: expressed in transfected cells; host or cells: CV-1 monkey cells (clone CV1-3.9.2)
T1 sequence (P10275 whole entry): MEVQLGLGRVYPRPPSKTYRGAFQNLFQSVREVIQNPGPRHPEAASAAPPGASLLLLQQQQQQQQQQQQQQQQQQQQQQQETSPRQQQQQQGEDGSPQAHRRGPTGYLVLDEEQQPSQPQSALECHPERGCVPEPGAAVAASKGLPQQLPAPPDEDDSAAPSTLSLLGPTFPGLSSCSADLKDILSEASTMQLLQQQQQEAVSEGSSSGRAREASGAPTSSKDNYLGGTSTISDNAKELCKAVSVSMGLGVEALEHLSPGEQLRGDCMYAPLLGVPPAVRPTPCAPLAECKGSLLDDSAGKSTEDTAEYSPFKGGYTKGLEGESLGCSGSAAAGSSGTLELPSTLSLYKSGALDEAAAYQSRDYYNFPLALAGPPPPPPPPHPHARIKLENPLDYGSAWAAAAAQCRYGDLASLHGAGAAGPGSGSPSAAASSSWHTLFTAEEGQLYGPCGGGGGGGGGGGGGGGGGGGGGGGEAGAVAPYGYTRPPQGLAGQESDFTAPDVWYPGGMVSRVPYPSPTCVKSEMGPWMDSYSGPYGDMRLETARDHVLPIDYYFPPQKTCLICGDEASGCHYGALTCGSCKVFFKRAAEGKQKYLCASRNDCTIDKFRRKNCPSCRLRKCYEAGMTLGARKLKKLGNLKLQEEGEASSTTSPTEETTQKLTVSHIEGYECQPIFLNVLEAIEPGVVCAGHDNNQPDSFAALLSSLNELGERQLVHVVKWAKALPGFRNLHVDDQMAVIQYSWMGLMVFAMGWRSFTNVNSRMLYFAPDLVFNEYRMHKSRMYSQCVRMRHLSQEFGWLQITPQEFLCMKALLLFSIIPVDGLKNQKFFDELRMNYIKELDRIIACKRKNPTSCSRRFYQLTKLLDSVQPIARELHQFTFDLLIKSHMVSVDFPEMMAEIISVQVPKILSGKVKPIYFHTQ
As to the kind of experiment: Transactivation assay, anti-androgenic potency, CV1-3.9.2 cells. The format is cell-based. To be noted: stimulation with 0.1 nM testosterone. As for the experimental part: (§1) The androgenic and anti-androgenic activity of the current and novel compounds was tested in a specific assay described by Fuhrman et al. [J. Steroid Biochem. Molec. […] This assay uses CV-1 cells derived from monkeys transfected with human androgen receptors.

The target of series [2] is T1, human androgen receptors. Put plainly: Androgen activity of anti-androgens in CVI-3.9.2 cells (CAT activity). The format is cell-based. As for the experimental part: as §1
Series [3] has as its system NH DF Normal Dermal Fibroblast. As to the kind of experiment: Inhibition of cell proliferation at 72 hours, NH DF. It counts as cell-based. Particulars: Homo sapiens, NHDF. As for the experimental part:
(§2) All compounds were screened on a panel of normal and cancer human cell lines, including human prostate cancer cell lines, PC-3, DU-145, and LnCAP.
(§3) Cells (10^4 /well) were plated on 96 well plates with the following controls: no cells and toxic control (1×10^-3 M sodium dodecyl sulfate (SDS). The drug was diluted in ethanol and added directly to the wells. Plates were incubated at 37° C. under 5% carbon dioxide in sterile air, in a humidified incubator for 72 hours. A solution (50 μl of 2,3-bis-(methoxy-4-nitro-5-sulfophenyl)-5-[(phenylamino)carbonyl]-2H-tetrazolium hydroxide (XTT), 1 mg/mL) in phosphate buffered saline (PBS, 100 mM) was added to each well, In the presence of viable cells, this colorless clear solution is enzymatically transformed to give a pink coloration, read at 450 nm using a microplate reader (Molecular Devices Thermomax). The inhibition of cell growth was measured by hemocytometer, counting cell viability. (Table I)

For series [4], the system named is HLF-1 Normal Lung Diploid. As to the kind of experiment: Inhibition of cell proliferation at 72 hours, HLF-1. The format is cell-based. To be noted: Homo sapiens, HLF1. The method, then:
as §2, §3

Series [5] deals with Molt-4 Human T-cell Leukemia. As to the kind of experiment: Inhibition of cell proliferation at 72 hours, Molt-4. It counts as cell-based. To be noted: Molt-4, 72 hours. As for the experimental part: as §2, §3
The subject of series [6] is MCF-7 Human Breast. As to the kind of experiment: Inhibition of cell proliferation at 72 hours, MCF-7. The format is cell-based. Particulars: MCF7, MCF-7, 72 hours. The method, then:
as §2, §3

Series [7] relates to PC-3 human cell line. As to the kind of experiment: Relative growth inhibition after 6 days. It counts as cell-based. To be noted: for activity at 10 µM: Homo sapiens, read-out: No. of cells remaining expressed as a % of control. As for the experimental part:
as §2
as §3, with “Plates were incubated at 37° C. under 5% carbon dioxide in sterile air, in a humidified incubator for 72 hours.” left out

Series [8] concerns L-1210 Mouse Leukemia. Put plainly: Inhibition of cell proliferation at 72 hours, L-1210. The format is cell-based. Particulars: L1210, L-1210, 72 hours.
The subject of series [9] is DU-145 Human Prostate (receptor poor). As to the kind of experiment: Inhibition of cell proliferation at 72 hours, DU-145. The format is cell-based. To be noted: DU-145, 72 hours. The method, then: as §2, §3
In series [10] the test system is MCF-7/ADR Human Breast (adriamycin resistant). As to the kind of experiment: Inhibition of cell proliferation at 72 hours, MCF-7/ADR. The format is cell-based. To be noted: NCI/ADR-RES, MCF-7/ADR (adriamycin resistant). As for the experimental part:
as §2, §3

In series [11] the test system is Ovcar 3 Human Ovary. Put plainly: Inhibition of cell proliferation at 72 hours, Ovcar 3. The format is cell-based. Particulars: Ovcar 3, 72 hours. The method, then:
as §2, §3

Series [12] relates to CHO Chinese Hamster Ovary. As to the kind of experiment: Inhibition of cell proliferation at 72 hours, CHO. The format is cell-based. Particulars: Cricetulus griseus.
Series [13] deals with Ln CAP Human Prostate (with androgen receptors). Put plainly: Inhibition of cell proliferation at 72 hours, Ln CAP. It counts as cell-based. To be noted: LNCaP. As for the experimental part:
as §2, §3

In series [14] the test system is PC-3 Human Prostate (few androgen receptors). Put plainly: Inhibition of cell proliferation at 72 hours, PC-3. The format is cell-based. Particulars: PC-3, 72 hours. As for the experimental part: as §2, §3
Series [15] relates to panel of normal and cancer human cell lines. Put plainly: Cytotoxicity screen on panel of normal and cancer cell lines. The format is cell-based. As for the experimental part: as §2, §3
For series [16], the system named is androgen receptors. Particulars: background statement; cited from earlier work.
The test system of series [17] is progestin receptors. To be noted: background statement; cited from earlier work.
Series [18] concerns glucocorticoid receptors. Particulars: background statement; cited from earlier work.
[19] abbreviates: 10^-5 M, cell density 10^4/well.

By IC50 is commonly meant the point on the concentration scale where inhibition reaches its midpoint. A higher IC50 goes with weaker potency in that assay.

With `CC1(C)OCC(CN2C(=S)N(c3ccc(C#N)c(C(F)(F)F)c3)C(=O)C2(C)C)O1` (centres unmarked) [BP134, 4-[4,4-dimethyl-3-[2',2'-dimethyl-1',3'-dioxolane-4'-methyl)-5-oxo-2-thioxo-1-imidazolidinyl]-2-trifluoromethyl-benzonitrile], in series [1], the IC50 worked out at 0.021 µM. In series [2] (1 μM), the “CAT Activity” value is listed as 1600 cpm.

In turn, `CC1(C)C(=O)N(c2ccc(C#N)c(C(F)(F)F)c2)C(=S)N1CC(O)CO` (centres unmarked) [BP135, 4-[3-(2',3'-dihydroxypropyl)-4,4-dimethyl-5-oxo-2-thioxo-1-imidazolidinyl]-2-trifluoromethyl-benzonitrile] returned an IC50 in [1] of 0.158 µM. In addition, in series [2] (1 μM), the “CAT Activity” value stood at 1900 cpm.

Take `CC(C)(C)OC(=O)NCCN1C(=S)N(c2ccc(C#N)c(C(F)(F)F)c2)C(=N)C1(C)C` [BP136, 4-[3-(2'-(N-t-butoxycarbonyl)-aminoethyl)-4,4-dimethyl-5-imino-2-thioxo-1-imidazolidinyl]-2-trifluoromethyl-benzonitrile]: the IC50 in [1] came out at 0.2 µM. For the same compound, the “CAT Activity” value in series [2] (1 μM) is reported as 1800 cpm.

`CC(C)(C)OC(=O)NCCN1C(=S)N(c2ccc(C#N)c(C(F)(F)F)c2)C(=O)C1(C)C` [BP137, 4-[3-(2'-N-(t-butoxycarbonyl)-aminoethyl)-4,4-dimethyl-5-oxo-2-thioxo-1-imidazolidinyl]-2-trifluoromethyl-benzonitrile] displayed an IC50 in [1] of 0.02 µM. Also, in [2] (1 μM), the “CAT Activity” value is reported as 2000 cpm.

In turn, `CC1(C)C(=O)N(c2ccc(C#N)c(C(F)(F)F)c2)C(=S)N1CCN` [BP138, 4-[3-(2'-aminoethyl) 4,4-dimethyl-5-oxo-2-thioxo-1-imidazolidinyl]-2-trifluoromethyl-benzonitrile] returned an IC50 in [1] of 0.139 µM. The “CAT Activity” value in series [2] (1 μM) was 1600 cpm.

As to `CC(=O)NCCN1C(=S)N(c2ccc(C#N)c(C(F)(F)F)c2)C(=O)C1(C)C` [BP139, 4-[3-(2'-N-acetylaminoethyl)-4,4-dimethyl-5-oxo-2-thioxo-1-imidazolidinyl]-2-trifluoromethyl-benzonitrile], 0.239 µM corresponded to half-maximal inhibition in [1] (IC50). Also, the “CAT Activity” value in series [2] (1 μM) turned out to be 1500 cpm.

`CC1(C)OCC(CN2C(=S)N(c3ccc(C#N)c(C(F)(F)F)c3)C(=N)C2(C)C)O1` (centres unmarked) [BP163, 4-[4,4-dimethyl-3-(2',2'-dimethyl-1',3'-dioxolane-4'-methyl)-5-imino-2-thioxo-1-imidazolidinyl]-2-trifluoromethyl-benzonitrile] had an IC50 in [1] of 0.217 µM. For the same compound, the “CAT Activity” value in series [2] (1 μM) is reported as 2100 cpm.

With `C=CCN1C(=S)N(c2ccc(C#N)c(C(F)(F)F)c2)C(=O)C1(C)C` [BP-82, 4-[4,4-dimethyl-5-oxo-3-(2'-propenyl)-2-thioxo-1-imidazolidinyl]-2-trifluoromethyl-benzonitrile], the IC50 in series [3] is 91.7 µM; in [1] it was approximately 0.0065 µM; in [4] it was 39 µM; in series [5] it was 48.8 µM; in series [6] it was 50 µM; in [8] it was 25 µM. Moreover, the IC50 in [9] was 13.9 µM; in [10], 15.1 µM; in [11], 96.5 µM; in series [12] it was 34.5 µM; in series [13] it was 66 µM; in series [14], 31.5 µM. Moreover, the “CAT Activity” value in [2] (1 μM) amounted to 1300 cpm. Further, the activity at 10 µM in series [7] (setting [19]) was approximately 70%. Further, the “cytostatic effect in PC-3 human cell line” value in series [7] (PC-3, Table II) is reported as “cytostatic effect”.

Regarding `CC(=O)O[C@H]1C(=O)[C@]2(C)[C@@H](OC(=O)NCCN3C(=S)N(c4ccc(C#N)c(C(F)(F)F)c4)C(=O)C3(C)C)C[C@H]3OC[C@@]3(OC(C)=O)[C@H]2[C@H](OC(=O)c2ccccc2)[C@]2(O)C[C@H](OC(=O)[C@H](O)[C@@H](NC(=O)c3ccccc3)c3ccccc3)C(C)=C1C2(C)C` [BP-196, 7-{imidazolidinyl-5",5"-dimethyl-4"-oxo-3"-[4"'-cyano-3'"-trifluoromethylphenyl-imidazolidinyl]-2"-thioxo-1"-ethylcarbamoxy}paclitaxel], the IC50 in [3] stood at 0.107 µM; in [4] it was 8.06 µM; in [5], 0.147 µM; in series [6] it was 0.989 µM; in [8], 0.97 µM; in series [9] it was 0.867 µM. Moreover, the IC50 in series [10] amounted to 10 µM; in series [11], 0.05 µM; in series [12], 8.76 µM; in series [13], 0.131 µM; in [14], 0.0372 µM. Moreover, the “toxicity vis-a-vis normal cells” value in series [15] (normal cells) is recorded as “quite high”. Besides, the “Observation (relative growth inhibition)” value in series [7] (10^-5 M, after 6 days, cell density 10^4/well) is listed as “cytotoxic cell death”. The activity at 10 µM in [7] (setting [19]) was approximately 100%.

`C#CCN1C(=S)N(c2ccc(C#N)c(C(F)(F)F)c2)C(=O)C1(C)C` [BP-199, 4-[4,4-dimethyl-3-(2'-propynyl)-5-oxo-2-thioxo-1-imidazolidinyl]-2-trifluoromethyl-benzonitrile]: the IC50 in series [3] is more than 100 µM; in series [1], 0.015 µM; in series [4], more than 100 µM; in series [5] it was more than 100 µM; in series [6] it was 100 µM; in [8] it was 11 µM. Further, the IC50 in [9] was 85.1 µM; in series [10], 10 µM; in series [11], more than 100 µM; in [12], 12.8 µM; in [13], 0.82 µM; in [14], 0.132 µM. For the same compound, the “cytotoxicity in human prostate cancer lines containing at least some androgen receptors” value in [15] (human prostate cancer lines) is on record as “most cytotoxic”. Moreover, the “cytotoxicity in a variety of other human transformed and normal cells” value in series [15] (other human transformed and normal cells) is “low cytotoxicity”. Moreover, in [7] (setting [19]), the activity at 10 µM is approximately 50%.

As for `CC1(C)C(=O)N(c2ccc(C#N)c(C(F)(F)F)c2)C(=S)N1CCc1c[nH]cn1` [BP-213], in [7] (setting [19]), the activity at 10 µM was approximately 40%.

On to `CC(O)(CS(=O)(=O)c1ccc(F)cc1)C(=O)Nc1ccc(C#N)c(C(F)(F)F)c1` (centres unmarked) [Casodex], for which the “binding to androgen receptors (sufficiency for complete blockage)” value in series [16] is “do not bind sufficiently to androgen receptors to achieve their complete blockage”.

For the compound `CC(=O)O[C@]1(C(C)=O)CC[C@H]2[C@@H]3C=C(Cl)C4=CC(=O)[C@@H]5C[C@@H]5[C@]4(C)[C@H]3CC[C@@]21C` [Cyproterone Acetate], the “binding to progestin receptors” value in series [17] was “binds to the glucocorticoid and progestin receptors”. The “binding to glucocorticoid receptors” value in series [18] is “binds to the glucocorticoid and progestin receptors”.

As to `C[C@]1(O)CC[C@H]2[C@@H]3CCC4=CC(=O)CCC4=C3C=C[C@@]21C` [R1881, reference compound], in series [2], the “CAT Activity” value was 5400 cpm and 5600 cpm and 6700 cpm.

For `CC1(C)C(=O)N(c2ccc(C#N)c(C(F)(F)F)c2)C(=S)N1CCCCO` [RU59063, 4-[4,4-dimethyl-3-(4-hydroxybutyl)-5-oxo-2-thioxo-1-imidazolidinyl]-2-trifluoromethyl-benzonitrile, reference compound], inhibition in series [1] was half-maximal at 0.023 µM (IC50). Further, the “CAT Activity” value in [2] (1 μM) is on record as 2600 cpm.
